Data as given in US11040106B2, “Conjugates of kinase inhibitors and cyanine dyes” (priority 2018, dated 2021).
“Also recorded” adds a separate entry of the source. Where two headings read alike, the source gives them in different places.

Legend:
[1] = target: T1, HSA (Homo sapiens, UniProt P02768); test: Covalent binding / reaction of cyanines with HSA (LC/MS, ESI MS, NIR-fluorescent gel)
[2] = system: U87-MG cells; test: Cytotoxicity of ICG, MHI-148 and QCy, 72 h in the dark, AlamarBlue; format: cell-based, human
Excerpt: Cytotoxicity of QCy was studied using U87-MG cells (a glioblastoma multiforme line).

[3] = Photophysical properties; format: physicochemical
[4] = system: U87-MG cells; test: Uptake and colocalization of 1-Cl and 1-HSA (confocal); format: cell-based, human
Description: Colocalization with trackers for mitochondria, lysosome, ER and Golgi are featured. Images were taken using Zeiss confocal microscope at 60×/1.2 water immerse objective after 30 mins of incubation.
FIG. 43 are data from a set of experiments nearly identical to those in FIG. […]
Data in FIG. 42 should be compared with literature reports describing import of 1-Cl but in media containing albumin into various cells.

[5] = system: U87-MG glioblastoma cells; test: Organelle localization of the fluors (confocal imaging); format: cell-based, human; conditions: 37° C., DMEM/F12 with 10% FBS pH 7.4; for localization after time (h) 0.5: 0.5 h; for localization after time (h) 24: 24 h
[6] = Solubility in water; format: physicochemical
Description: 1-NMe2 is water soluble up until 1000 μM whereas 1-CH2 precipitates at 100 μM.

[7] = target: T1, HSA; test: Covalent binding / reaction of cyanines with HSA (LC/MS, ESI MS, NIR-fluorescent gel); conditions: HEPES buffer pH 7.4, 37° C.
Description: FIGS. 33A to 33D show kinetics of a, 1, c, 4, d, 5; e, 6 in 1 M HEPES buffer pH 7.4. […] The kinetics was examined on C, 18 column using Agilent 1200 series LC/MS at 600 nm.
FIGS. 34A and 34B show mass spectra of a, free HSA and b, 1 bound to HSA. HSA: 1 (2.5:1); buffer 1 M HEPES.
In a control experiment, human serum albumin (HSA) was reacted with 2.5 equivalents of 1-Cl at 37° C. in 1 M HEPES buffer. This 1-Cl:albumin molar ratio was selected because it is approximately that used in cell culture experiments to probe uptake of this dye.
To test this assertion the experimental design was modified in the following way.

[8] = Photostability under LED irradiation at 780 nm; format: physicochemical; conditions: PBS pH 7.4, LED 780 nm
Description: Initially, equimolar concentrations (20 μM) were used; QCy was reproducibly and more robust than the other two, but the difference was more than anticipated so the experimental design was suspected.

[9] = system: HEPG2 cells; test: Cytotoxicity (cell viability, MTT assay) on HEPG2 cells; format: cell-based; conditions: HEPG2 cells (liver cancer)
Description: Approximately 5000 HEPG2 cells/well were seeded on 96 well plate containing 10% fetal bovine serum. Cells were allowed to adhere overnight before test compounds were added. Stock solutions of 1a (0.02 M in DMSO) were diluted with protein-free medium (PFHM-II) to make desired final concentrations varying from 0.01 to 80 μM. The cells were incubated with the desired concentration for 48 h. The cell viabilities were calculated using MTT assay. Briefly, 20 μL of 3-(4,5-dimethylthiazol-2-yl)-2,5-diphenyltetrazolium bromide MTT (5 mg/mL, in Hank's balanced salt solution) were added and the cells were incubated for an additional 3.5 h. The medium was then removed, and […] of DMSO was added to dissolve the formazan crystal formed. The optical density of each well (at 570 nm) was measured with a BioTek Synergy 4 Microplate Reader. The viability of each cell line in response to the treatment with tested compounds was calculated as: % dead cells=100−(OD treated/OD control)×100.

[10] = system: HEPG2 cells; test: 1a in HEPG2 cells: morphology change and co-localization in organelles; format: cell-based
Excerpt: FIG. 5A visualizes some of the data from FIGS. 4A and 4B (that on HEPG2 cells).
Localization of compounds in mitochondria tends to give more pronounced cytotoxicity effects than accumulation in most organelles.

[11] = system: U87-MG cells; test: Cytotoxicity (cell viability) on U87-MG cells; format: cell-based; conditions: for cytotoxicity compared with parent dye, parent kinase inhibitor (and their mixture): U87-MG cells (glioblastoma)
[12] = system: U87-MG (Glioblastoma) cells as compared to HUVEC (normal cells); test: Uptake by U87-MG cells as compared to HUVEC; format: cell-based, human
[13] = system: MDA-MB-231 “triple negative” breast cancer cells; test: Cytotoxicity (cell viability) on MDA-MB-231 cells; format: cell-based; conditions: MDA-MB-231 (breast cancer cells)
[14] = Aggregation: concentration dependence of absorbance spectra; format: physicochemical; conditions: 1.25-20 μM, 10 mM pH 7.4 PBS
Description: FIGS. 37A and 37B show concentration dependence of absorbance spectra in the range 1.25-20 μM in 10 mM pH 7.4 PBS buffer a, (B) MHI-148 and b, (1) QCy.
Shoulders of that kind and indicative of H-aggregates, ie associative oligomers in which the transition moments of the monomers are not well aligned leading to […] (blue) shifts. Concentration dependences of absorbance spectra of QCy and MHI-148 (structurally the closest) were determined to explore H-aggregation further.

T1 sequence (P02768 25-609): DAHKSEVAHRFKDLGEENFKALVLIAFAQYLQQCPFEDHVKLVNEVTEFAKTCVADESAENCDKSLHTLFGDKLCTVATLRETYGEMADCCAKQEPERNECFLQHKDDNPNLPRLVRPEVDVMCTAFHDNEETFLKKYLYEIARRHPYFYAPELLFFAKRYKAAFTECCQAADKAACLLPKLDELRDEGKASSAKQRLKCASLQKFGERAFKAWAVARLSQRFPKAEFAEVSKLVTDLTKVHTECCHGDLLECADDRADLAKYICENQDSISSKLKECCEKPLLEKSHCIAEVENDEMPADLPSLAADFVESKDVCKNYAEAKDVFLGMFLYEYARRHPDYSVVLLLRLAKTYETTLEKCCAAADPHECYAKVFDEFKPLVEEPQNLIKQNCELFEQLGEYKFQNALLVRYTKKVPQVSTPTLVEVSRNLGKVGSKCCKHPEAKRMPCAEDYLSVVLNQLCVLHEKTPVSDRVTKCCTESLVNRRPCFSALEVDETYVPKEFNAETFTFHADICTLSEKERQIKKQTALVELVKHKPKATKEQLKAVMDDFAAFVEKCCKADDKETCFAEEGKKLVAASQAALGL

Molecule: CC1(C)C(/C=C/C2=C(Cl)C(=C/C=C3\N(CCCCCC(=O)O)c4ccccc4C3(C)C)/CCC2)=[N+](CCCCCC(=O)O)c2ccccc21 [Compound 1]
- binding to thiol-blocked HSA (TCEP, then 6-maleimide hexanoic acid) ([1]; 15 μM HSA, 15 μM dye): did not bind to 1-Cl
- consumption in reaction with HSA ([1]; 0.5 mM HSA, 0.2 mM 1-Cl, 1 M HEPES pH 7.4, 37° C.): nearly all the 1-Cl is consumed after 72 h
- IC50 [2]: 19.1 ± 1.01 µM
- brightness (εmax × Φ) ([3]; 10 mM PBS buffer pH 7.4): 3689
- Δλ (Stokes' shift) ([3]; 10 mM PBS buffer pH 7.4): 24 nm
- εmax ([3]; 10 mM PBS buffer pH 7.4): 149940 cm^−1M^−1
- λabs ([3]; 10 mM PBS buffer pH 7.4): 775 nm
- λem ([3]; 10 mM PBS buffer pH 7.4): 799 nm
- relative brightness ([3]; 10 mM PBS buffer pH 7.4, relative to ICG): 1.90
- Φ (fluorescence quantum yield) ([3]; 10 mM PBS buffer pH 7.4, standard A (Φ = 0.13 in DMSO)): 0.025
- organelle colocalization after uptake ([4]; 20 μM, serum free media, 30 mins, listed as 1-Cl): localized in the mitochondria; also recorded: Most colocalization is seen with the mitochondria
- organelle localization after uptake ([4]; media containing albumin): fluorescence was observed mostly in the mitochondria
- localization after time (h) 0.5 [5]: mitochondria
- localization after time (h) 24 [5]: mitochondria and lysosome
- concentration at which it precipitates [6]: 100 µM
- covalent binding / reaction with HSA [7]: showed an increase in peak with HSA; also recorded: HSA is bound to 1; also recorded: binds to HSA at cysteine 34 position
- covalent binding / reaction with HSA ([7]; listed as 1-Cl): 1:1 covalent adduct and does combine with HSA
- photostability (in words) [8]: the least stable

Molecule: Cc1nc(Nc2ncc(C(=O)Nc3c(C)cccc3Cl)s2)cc(N2CCN(CCOC(=O)CCCCCN3C(=CC=C4CCCC(C=CC5=[N+](CCCCCC(=O)O)c6ccccc6C5(C)C)=C4Cl)C(C)(C)c4ccccc43)CC2)n1 [Compound 1a]
- cytotoxicity compared with parent dye, parent kinase inhibitor (and their mixture) [9]: more found to be toxic than individual 1, a or a combination of 1+a; also recorded: significantly more toxic than the parent dye, the parent kinase inhibitor, or a mixture of the dye and kinase inhibitor
- organelle localization ([10]; HEPG2): localizes preferentially in mitochondria
- influence on cell morphology compared with dasatinib a ([10]; HEPG2, 24 and 48 h): much stronger influence on the cell morphology
- cytotoxicity compared with parent dye, parent kinase inhibitor (and their mixture) [11]: more found to be toxic than individual 1, a or a combination of 1+a; also recorded: significantly more toxic than the parent dye, the parent kinase inhibitor, or a mixture of the dye and kinase inhibitor
- cytotoxicity compared with ICG-COOH conjugate ([11]; U87-MG, 24 and 48 h): more toxic than ICG-COOH-a
- uptake by U87-MG cells compared to HUVEC [12]: localizes more in U87-MG cells than HUVEC cells

Molecule: CN(C)C(=O)c1cc2cnc(Nc3ccc(N4CCN(C(=O)CCCCCN5/C(=C/C=C6\CCCC(/C=C/C7=[N+](CCCCCC(=O)[O-])c8ccccc8C7(C)C)=C6Cl)C(C)(C)c6ccccc65)CC4)cn3)nc2n1C1CCCC1 [Compound 1c]
- cytotoxicity compared with parent dye, parent kinase inhibitor (and their mixture) [13]: more found to be toxic than individual 1, c or a combination of 1+c; also recorded: significantly more toxic than the parent dye, the parent kinase inhibitor, or a mixture of the dye and kinase inhibitor

Molecule: CC(Oc1cc(-c2cnn(C3CCN(C(=O)CCCCCN4C(=CC=C5CCCC(C=CC6=[N+](CCCCCC(=O)[O-])c7ccccc7C6(C)C)=C5Cl)C(C)(C)c5ccccc54)CC3)c2)cnc1N)c1c(Cl)ccc(F)c1Cl (stereo not shown) [Compound 1d]
- cytotoxicity compared with parent dye, parent kinase inhibitor (and their mixture) [13]: more found to be toxic than individual 1, d or a combination of 1+d; also recorded: significantly more toxic than the parent dye, the parent kinase inhibitor, or a mixture of the dye and kinase inhibitor

Molecule: CC(=O)c1c(C)c2cnc(Nc3ccc(N4CCN(C(=O)CCCCCN5C(=CC=C6CCCC(C=CC7=[N+](CCCCS(=O)(=O)[O-])c8ccccc8C7(C)C)=C6Cl)C(C)(C)c6ccccc65)CC4)cn3)nc2n(C2CCCC2)c1=O [Compound 3b]
- cytotoxicity compared with parent dye, parent kinase inhibitor (and their mixture) [11]: more toxic than b or 3

Molecule: CC1(C)C(/C=C/C2=CC(=C/C=C3/N(CCCCCC(=O)O)c4ccccc4C3(C)C)/CCC2)=[N+](CCCCCC(=O)[O-])c2ccccc21 [Compound 4]
- covalent binding / reaction with HSA [7]: did not bind
- covalent binding / reaction with HSA ([7]; listed as 1-H): do not react with HSA

Molecule: CC1=C(/C=C/C2=[N+](CCCCCC(=O)[O-])c3ccccc3C2(C)C)CCC/C1=C\C=C1\N(CCCCCC(=O)O)c2ccccc2C1(C)C [Compound 5]
- covalent binding / reaction with HSA [7]: did not bind
- covalent binding / reaction with HSA ([7]; listed as 1-Me): do not react with HSA

Molecule: CC1(C)C(/C=C/C2=C(c3ccccc3)C(=C/C=C3/N(CCCCCC(=O)O)c4ccccc4C3(C)C)/CCC2)=[N+](CCCCCC(=O)[O-])c2ccccc21 [Compound 6]
- covalent binding / reaction with HSA ([7]; listed as 1-Ph): do not react with HSA

Molecule: CC1(C)C(=CC=C2C[N+](C)(C)CC(C=CC3=[N+](CCCCCC(=O)O)c4ccccc4C3(C)C)=C2Cl)N(CCCCCC(=O)O)c2ccccc21 [QCy]
- IC50 [2]: > 80 µM
- cytotoxicity (in words) [2]: not very toxic until 80 μM
- fluorescence quantum yield relative to ICG [3]: about three times greater
- absorbance of equimolar solutions ([3]; 5 μM, 10 mM pH 7.4 PBS): greater absorbance than ICG or MHI-148
- fluorescence brightness of equimolar solutions ([3]; 5 μM, 10 mM pH 7.4 PBS): markedly higher than the other two fluors
- brightness (εmax × Φ) ([3]; 10 mM PBS buffer pH 7.4): 9901
- εmax ([3]; 10 mM PBS buffer pH 7.4): 192460 cm^−1M^−1
- brightness compared with 1-CH2 (in words) ([3]; PBS buffer): brighter dye than 1-CH2
- brightness relative to 1-CH2 ([3]; PBS, pH 7.4): 2 ×
- quantum yield relative to 1-CH2 ([3]; PBS, pH 7.4): 2 ×
- shift of absorbance and fluorescence maxima to shorter wavelengths ([3]; compared with ICG and 1-CH2): ~30 nm
- extinction coefficient compared with 1-CH2 (in words) ([3]; in PBS buffer and in water): stronger extinction coefficient than 1-CH2
- extinction coefficient relative to 1-CH2 ([3]; in water): ~3 ×
- localization after time (h) 0.5 [5]: golgi
- localization after time (h) 24 [5]: lysosome and ER
- water solubility (in words) [6]: more water soluble than MHI-148
- water soluble up until (concentration) [6]: ≤ 1000 µM
- water solubility (in words) ([6]; listed as 1-NMe2): significantly more soluble in water than 1-CH2
- aggregation (H-aggregates) in aqueous media [14]: less prone to aggregation in aqueous media than MHI-148; also recorded: considerably less aggregated than MHI-148
- photostability (in words) [8]: almost no decomposition after 1 h continuous illumination; also recorded: the most photostable
- photostability (in words) ([8]; listed as 1-NMe2): more stable than 1-CH2; also recorded: significantly more photostable than 1-CH2 or ICG

Molecule: Indocyanine green [ICG]
- localization after time (h) 0.5 [5]: golgi and ER
- localization after time (h) 24 [5]: golgi and lysosome
